Data: ChEMBL document CHEMBL4002609, “Sulfonamide-based non-alkyne LpxC inhibitors as Gram-negative antibacterial agents” (Bioorg Med Chem Lett, 2017)
pIC50: −log10 of the molar value. Converted amounts (≈) assume the structure as drawn.

Columns and labels:
Staphylococcus aureus = assay: Antibacterial activity against Staphylococcus aureus ATCC 29213 by agar dilution method; format: functional
Klebsiella pneumoniae = assay: Antibacterial activity against Klebsiella pneumoniae ATCC 13883 by agar dilution method; format: functional
Pseudomonas aeruginosa = assay: Antibacterial activity against Pseudomonas aeruginosa PAO 4009 by agar dilution method; format: functional
Escherichia coli = assay: Antibacterial activity against Escherichia coli TG1 by agar dilution method; format: functional
[1] = target: T1, UDP-3-O-acyl-N-acetylglucosamine deacetylase (Escherichia coli K-12, UniProt P0A725); assay: Inhibition of Escherichia coli LpxC using UDP-3-O-(R-3-hydroxymyristoyl)GlcNAc as substrate after 60 mins by OPA reagent based fluorescence assay
T1 sequence (P0A725 whole entry): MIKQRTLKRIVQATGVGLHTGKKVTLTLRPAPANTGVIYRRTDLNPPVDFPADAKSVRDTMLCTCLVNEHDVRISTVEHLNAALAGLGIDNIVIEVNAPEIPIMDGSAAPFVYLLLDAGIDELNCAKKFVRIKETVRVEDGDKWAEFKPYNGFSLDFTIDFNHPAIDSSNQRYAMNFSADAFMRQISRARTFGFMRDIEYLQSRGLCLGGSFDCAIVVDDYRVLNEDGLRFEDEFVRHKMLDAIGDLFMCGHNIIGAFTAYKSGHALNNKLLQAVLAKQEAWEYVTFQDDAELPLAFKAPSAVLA

Cytochrome P450 2D6 = Cytochrome P450 2D6 (Homo sapiens, UniProt P10635); assay: Time-dependent inhibition of CYP2D6 (unknown origin); format: ADME
Sequence of Cytochrome P450 2D6 (P10635 whole entry): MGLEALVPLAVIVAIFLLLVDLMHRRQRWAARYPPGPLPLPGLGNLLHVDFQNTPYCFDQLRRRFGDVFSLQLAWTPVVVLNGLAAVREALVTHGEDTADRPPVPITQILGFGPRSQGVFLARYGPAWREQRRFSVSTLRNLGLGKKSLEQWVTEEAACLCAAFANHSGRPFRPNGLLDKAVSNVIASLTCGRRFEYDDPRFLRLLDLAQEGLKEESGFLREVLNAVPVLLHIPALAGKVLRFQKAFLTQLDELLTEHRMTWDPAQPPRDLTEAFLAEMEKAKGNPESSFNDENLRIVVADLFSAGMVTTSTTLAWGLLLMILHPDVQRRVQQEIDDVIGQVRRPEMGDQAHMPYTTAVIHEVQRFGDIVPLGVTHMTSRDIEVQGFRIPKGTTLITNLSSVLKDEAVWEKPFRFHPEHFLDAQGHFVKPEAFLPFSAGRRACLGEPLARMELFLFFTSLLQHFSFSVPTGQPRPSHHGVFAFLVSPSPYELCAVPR

Cytochrome P450 2C9 = Cytochrome P450 2C9 (Homo sapiens, UniProt P11712); assay: Time-dependent inhibition of CYP2C9 (unknown origin); format: ADME
Sequence of Cytochrome P450 2C9 (P11712 whole entry): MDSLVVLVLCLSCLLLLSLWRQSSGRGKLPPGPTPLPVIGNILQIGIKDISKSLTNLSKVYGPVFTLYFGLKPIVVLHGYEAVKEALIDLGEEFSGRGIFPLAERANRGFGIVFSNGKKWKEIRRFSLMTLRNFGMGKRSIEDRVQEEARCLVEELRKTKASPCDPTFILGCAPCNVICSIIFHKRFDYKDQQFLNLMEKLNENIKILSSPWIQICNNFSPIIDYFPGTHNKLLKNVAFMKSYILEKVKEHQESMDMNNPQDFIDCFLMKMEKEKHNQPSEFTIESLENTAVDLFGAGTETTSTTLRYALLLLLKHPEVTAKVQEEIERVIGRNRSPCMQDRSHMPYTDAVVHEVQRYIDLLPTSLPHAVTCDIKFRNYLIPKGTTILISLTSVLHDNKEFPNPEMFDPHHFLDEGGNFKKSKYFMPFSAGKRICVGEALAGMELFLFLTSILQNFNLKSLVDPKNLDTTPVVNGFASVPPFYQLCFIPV

Cytochrome P450 1A2 = target: T2, Cytochrome P450 1A2 (Homo sapiens, UniProt P05177); assay: Time-dependent inhibition of CYP1A2 (unknown origin); format: ADME
T2 sequence (P05177 whole entry): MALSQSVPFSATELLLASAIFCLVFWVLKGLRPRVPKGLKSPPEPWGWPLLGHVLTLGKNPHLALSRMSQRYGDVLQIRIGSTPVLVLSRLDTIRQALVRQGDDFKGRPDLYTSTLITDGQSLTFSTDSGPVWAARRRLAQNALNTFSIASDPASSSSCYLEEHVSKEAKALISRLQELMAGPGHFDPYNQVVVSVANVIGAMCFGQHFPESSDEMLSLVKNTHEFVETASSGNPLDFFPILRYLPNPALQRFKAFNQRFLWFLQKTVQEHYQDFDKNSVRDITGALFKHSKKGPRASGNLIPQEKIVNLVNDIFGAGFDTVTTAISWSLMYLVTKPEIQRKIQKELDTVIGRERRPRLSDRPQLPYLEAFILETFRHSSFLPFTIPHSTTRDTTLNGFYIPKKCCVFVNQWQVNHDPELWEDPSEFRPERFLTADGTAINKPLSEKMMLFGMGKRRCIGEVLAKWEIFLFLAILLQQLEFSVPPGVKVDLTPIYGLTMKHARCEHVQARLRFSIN

Cytochrome P450 3A4 = Cytochrome P450 3A4 (Homo sapiens, UniProt P08684); assay: Time-dependent inhibition of CYP3A4 (unknown origin); format: ADME
Sequence of Cytochrome P450 3A4 (P08684 whole entry): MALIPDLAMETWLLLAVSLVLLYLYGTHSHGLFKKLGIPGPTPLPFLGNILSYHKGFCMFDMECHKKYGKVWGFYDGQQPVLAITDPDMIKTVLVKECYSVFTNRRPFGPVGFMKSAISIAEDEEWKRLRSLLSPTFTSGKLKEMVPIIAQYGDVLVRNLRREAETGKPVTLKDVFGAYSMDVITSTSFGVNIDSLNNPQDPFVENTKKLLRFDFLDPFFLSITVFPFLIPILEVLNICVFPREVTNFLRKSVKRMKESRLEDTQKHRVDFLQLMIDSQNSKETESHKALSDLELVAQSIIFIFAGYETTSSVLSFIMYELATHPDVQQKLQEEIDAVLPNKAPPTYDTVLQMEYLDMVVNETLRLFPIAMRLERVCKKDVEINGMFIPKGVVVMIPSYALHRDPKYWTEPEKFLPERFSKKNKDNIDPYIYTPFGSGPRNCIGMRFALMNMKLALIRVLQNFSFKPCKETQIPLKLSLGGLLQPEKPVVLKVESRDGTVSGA

Cytochrome P450 2C19 = Cytochrome P450 2C19 (Homo sapiens, UniProt P33261); assay: Time-dependent inhibition of CYP2C19 (unknown origin); format: ADME
Sequence of Cytochrome P450 2C19 (P33261 whole entry): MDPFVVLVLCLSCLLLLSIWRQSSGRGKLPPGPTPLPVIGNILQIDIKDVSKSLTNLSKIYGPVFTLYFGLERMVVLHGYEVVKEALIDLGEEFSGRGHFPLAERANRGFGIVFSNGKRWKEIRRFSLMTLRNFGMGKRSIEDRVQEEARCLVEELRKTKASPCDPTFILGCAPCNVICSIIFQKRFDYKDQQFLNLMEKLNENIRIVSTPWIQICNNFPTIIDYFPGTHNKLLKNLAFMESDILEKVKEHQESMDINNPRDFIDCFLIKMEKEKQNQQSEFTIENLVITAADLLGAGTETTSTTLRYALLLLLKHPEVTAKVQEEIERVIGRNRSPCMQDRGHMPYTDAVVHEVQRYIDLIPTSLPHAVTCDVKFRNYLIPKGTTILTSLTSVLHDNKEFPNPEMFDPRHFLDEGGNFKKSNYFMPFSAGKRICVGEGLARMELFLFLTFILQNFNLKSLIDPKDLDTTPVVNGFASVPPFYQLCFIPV

Compound	MIC (Staphylococcus aureus) [µg/mL]	MIC (Klebsiella pneumoniae) [µg/mL]	MIC (Pseudomonas aeruginosa) [µg/mL]	MIC (Escherichia coli) [µg/mL]	pIC50 [1]	TDI (Cytochrome P450 2D6)	TDI (Cytochrome P450 2C9)	TDI (Cytochrome P450 1A2)	TDI (Cytochrome P450 3A4)	TDI (Cytochrome P450 2C19)
C[C@@H](O)[C@H](NC(=O)c1ccc(C#Cc2ccc(CN3CCOCC3)cc2)cc1)C(=O)NO	> 128	0.25 (≈ 0.571 µM)	0.5 (≈ 1.14 µM)	0.125 (≈ 0.286 µM)						
CC(C)(NS(C)(=O)=O)[C@H](NC(=O)c1ccc(-c2ccccc2)cc1)C(=O)NO		64 (≈ 158 µM)	1 (≈ 2.47 µM)	2 (≈ 4.93 µM)	5.92					
CC(C)(NS(C)(=O)=O)[C@H](NC(=O)c1ccc(-c2cc3ccccc3o2)cc1)C(=O)NO	64 (≈ 144 µM)	1 (≈ 2.24 µM)	1 (≈ 2.24 µM)	0.25 (≈ 0.561 µM)	7.09					
CC(C)(NS(C)(=O)=O)[C@H](NC(=O)c1ccc(-c2cc3cc(F)ccc3o2)cc1)C(=O)NO	32 (≈ 69 µM)	1 (≈ 2.16 µM)	0.5 (≈ 1.08 µM)	0.25 (≈ 0.539 µM)	7.00					
CC(C)(NS(C)(=O)=O)[C@H](NC(=O)c1ccc(-c2cc3ccc(OCCO)cc3o2)cc1)C(=O)NO	> 128	8 (≈ 15.8 µM)	4 (≈ 7.91 µM)	1 (≈ 1.98 µM)	8.00					
CC(C)(NS(C)(=O)=O)[C@H](NC(=O)c1ccc(-c2cc3ccc(O)cc3o2)cc1)C(=O)NO	> 64	8 (≈ 17.3 µM)	2 (≈ 4.33 µM)	1 (≈ 2.17 µM)	6.85					
Cc1ccc(-c2ccc(C(=O)N[C@H](C(=O)NO)C(C)(C)NS(C)(=O)=O)nc2)cc1		> 128	32 (≈ 76.1 µM)	32 (≈ 76.1 µM)	< 5.00					
CC(C)(NS(C)(=O)=O)[C@H](NC(=O)c1ccc(-c2cc3ccc(F)cc3o2)cc1)C(=O)NO	64 (≈ 138 µM)	1 (≈ 2.16 µM)	0.5 (≈ 1.08 µM)	0.25 (≈ 0.539 µM)	7.10					
CC(C)(NS(C)(=O)=O)[C@H](NC(=O)c1ccc(-c2cc3ccccn3n2)cc1)C(=O)NO	> 128	> 128	4 (≈ 8.98 µM)	64 (≈ 144 µM)	< 5.00					
Cc1ccc(-c2ccc(C(=O)N[C@H](C(=O)NO)C(C)(C)NS(C)(=O)=O)cc2)cc1	> 128	4 (≈ 9.54 µM)	0.5 (≈ 1.19 µM)	1 (≈ 2.38 µM)	6.38	Active	Active	Active	Active	Active
CC(C)(NS(C)(=O)=O)[C@H](NC(=O)c1ccc(-c2nc3ccccc3o2)cc1)C(=O)NO	> 128	8 (≈ 17.9 µM)	4 (≈ 8.96 µM)	1 (≈ 2.24 µM)	6.39					
CC(C)(NS(C)(=O)=O)[C@H](NC(=O)c1ccc(-c2cc3cncnc3o2)cc1)C(=O)NO	> 128	> 128	32 (≈ 71.5 µM)	128 (≈ 286 µM)	< 5.00					
Cc1cnc(-c2ccc(C(=O)N[C@H](C(=O)NO)C(C)(C)NS(C)(=O)=O)cc2)nc1		> 128	16 (≈ 38 µM)	64 (≈ 152 µM)	< 5.00					
CC(C)(NS(C)(=O)=O)[C@H](NC(=O)c1ccc(-c2cc3cc4c(cc3o2)OCO4)cc1)C(=O)NO	> 32	0.5 (≈ 1.02 µM)	0.5 (≈ 1.02 µM)	0.063 (≈ 0.129 µM)	7.92					
CN(C)CCOc1ccc2cc(-c3ccc(C(=O)N[C@H](C(=O)NO)C(C)(C)NS(C)(=O)=O)cc3)oc2c1	> 128	32 (≈ 60.1 µM)	8 (≈ 15 µM)	4 (≈ 7.51 µM)	7.66					
CC(C)(NS(C)(=O)=O)[C@H](NC(=O)c1ccc(-c2cc3ccncc3o2)cc1)C(=O)NO	> 128	128 (≈ 287 µM)	8 (≈ 17.9 µM)	8 (≈ 17.9 µM)	5.85					
Cc1ccc(-c2ccc(C(=O)N[C@H](C(=O)NO)C(C)(C)NS(C)(=O)=O)cn2)cc1		64 (≈ 152 µM)	4 (≈ 9.51 µM)	8 (≈ 19 µM)	5.82					
Cc1ncc(-c2ccc(C(=O)N[C@H](C(=O)NO)C(C)(C)NS(C)(=O)=O)cc2)cn1		> 128	> 128	> 128	< 5.00					
